Measured values as given in ChEMBL document CHEMBL1201862, “PubChem BioAssay data set” (2004).
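Tested at 5 concentrations; 48 h exposure; 96-well plates; endpoints linearly interpolated, else capped at highest concentration. Abbreviation: GI50, concentration required for 50% inhibition of growth.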 Calls of active or inactive are those of the source. No stated cut-off is given here; in the data, active = GI50 up to about 1.1 µM and inactive = higher.

Columns and labels:
Test in all cases: growth of human tumour cells (NCI), 48 h
786-0 = test system: 786-0
A498 = test system: A498
A549 = test system: A549
ACHN = test system: ACHN
BT-549 = test system: BT-549
CAKI-1 = test system: CAKI-1
CCRF-CEM = test system: CCRF-CEM
COLO 205 = test system: COLO 205
DU-145 = test system: DU-145
EKVX = test system: EKVX
HCC 2998 = test system: HCC 2998
HCT-116 = test system: HCT-116
HCT-15 = test system: HCT-15
HOP-62 = test system: HOP-62
HOP-92 = test system: HOP-92
HT-29 = test system: HT-29
Hs-578T = test system: Hs-578T
IGROV-1 = test system: IGROV-1
K562 = test system: K562
KM12 = test system: KM12
LOX IMVI = test system: LOX IMVI
M14 = test system: M14
MCF7 = test system: MCF7
MDA-MB-231 = test system: MDA-MB-231
MDA-MB-435 = test system: MDA-MB-435
MDA-N = test system: MDA-N
MOLT-4 = test system: MOLT-4
Malme-3M = test system: Malme-3M
NCI-H226 = test system: NCI-H226
NCI-H23 = test system: NCI-H23
NCI-H460 = test system: NCI-H460
NCI-H522 = test system: NCI-H522
NCI/ADR-RES = test system: NCI/ADR-RES
OVCAR-3 = test system: OVCAR-3
OVCAR-4 = test system: OVCAR-4
OVCAR-5 = test system: OVCAR-5
OVCAR-8 = test system: OVCAR-8
PC-3 = test system: PC-3
RPMI-8226 = test system: RPMI-8226
RXF 393 = test system: RXF 393
SF-268 = test system: SF-268
SF-295 = test system: SF-295
SF-539 = test system: SF-539
SK-MEL-28 = test system: SK-MEL-28
SK-MEL-2 = test system: SK-MEL-2
SK-MEL-5 = test system: SK-MEL-5
SK-OV-3 = test system: SK-OV-3
SN12C = test system: SN12C
SNB-19 = test system: SNB-19
SNB-75 = test system: SNB-75
SR = test system: SR
SW-620 = test system: SW-620
TK-10 = test system: TK-10
U-251 = test system: U-251
UACC-257 = test system: UACC-257
UACC-62 = test system: UACC-62
UO-31 = test system: UO-31
T47D = test system: T47D

SMILES: CC(C)(O)CCc1ccc(O)c2c(=O)c3c(O)c4c(cc3oc12)O[C@H]1OC=C[C@@]41O [AUSTOCYSTIN D]
- GI50 (786-0): 7.06 µM (inactive)
- GI50 (A498): < 0.01 µM (active)
- GI50 (A549): 0.726 µM (active)
- GI50 (ACHN): < 0.01 µM (active)
- GI50 (BT-549): 9.06 µM (inactive)
- GI50 (CAKI-1): < 0.01 µM (active)
- GI50 (CCRF-CEM): 9.79 µM (inactive)
- GI50 (COLO 205): 0.0109 µM (active)
- GI50 (DU-145): < 0.01 µM (active)
- GI50 (EKVX): 0.255 µM (active)
- GI50 (HCC 2998): < 0.01 µM (active)
- GI50 (HCT-116): 0.0199 µM (active)
- GI50 (HCT-15): < 0.01 µM
- GI50 (HOP-62): 0.147 µM (active)
- GI50 (HOP-92): 0.251 µM (active)
- GI50 (HT-29): 1.24 µM (inactive)
- GI50 (Hs-578T): 10.2 µM (inactive)
- GI50 (IGROV-1): < 0.01 µM (active)
- GI50 (K562): 20 µM (inactive)
- GI50 (KM12): < 0.01 µM (active)
- GI50 (LOX IMVI): 9.31 µM (inactive)
- GI50 (M14): 0.411 µM (active)
- GI50 (MCF7): < 0.01 µM (active)
- GI50 (MDA-MB-231): 2.26 µM (inactive)
- GI50 (MDA-MB-435): < 0.01 µM (active)
- GI50 (MDA-N): < 0.01 µM (active)
- GI50 (MOLT-4): < 0.0106 µM (active)
- GI50 (Malme-3M): 1.08 µM (active)
- GI50 (NCI-H226): < 0.01 µM (active)
- GI50 (NCI-H23): < 0.01 µM (active)
- GI50 (NCI-H460): 0.0507 µM (active)
- GI50 (NCI-H522): 5.27 µM (inactive)
- GI50 (NCI/ADR-RES): < 0.01 µM (active)
- GI50 (OVCAR-3): < 0.01 µM (active)
- GI50 (OVCAR-4): < 0.01 µM (active)
- GI50 (OVCAR-5): 0.0615 µM (active)
- GI50 (OVCAR-8): < 0.01 µM (active)
- GI50 (PC-3): 0.119 µM (active)
- GI50 (RPMI-8226): 0.475 µM (active)
- GI50 (RXF 393): 0.148 µM (active)
- GI50 (SF-268): 0.056 µM (active)
- GI50 (SF-295): 8.87 µM (inactive)
- GI50 (SF-539): 0.514 µM (active)
- GI50 (SK-MEL-28): 0.286 µM (active)
- GI50 (SK-MEL-2): < 0.01 µM (active)
- GI50 (SK-MEL-5): 0.0102 µM (active)
- GI50 (SK-OV-3): 0.0125 µM (active)
- GI50 (SN12C): 8.69 µM (inactive)
- GI50 (SNB-19): 0.148 µM (active)
- GI50 (SNB-75): 0.0562 µM (active)
- GI50 (SR): 1.23 µM (inactive)
- GI50 (SW-620): < 0.01 µM (active)
- GI50 (TK-10): < 0.01 µM (active)
- GI50 (U-251): < 0.01 µM (active)
- GI50 (UACC-257): 0.0184 µM (active)
- GI50 (UACC-62): < 0.01 µM (active)
- GI50 (UO-31): < 0.01 µM (active)

SMILES: COC(=O)c1cc(OCc2cc(OCc3ccc(Br)cc3)cc(OCc3ccc(Br)cc3)c2)cc(OCc2cc(OCc3ccc(Br)cc3)cc(OCc3ccc(Br)cc3)c2)c1
- GI50 (786-0): > 100 µM (inactive)
- GI50 (A498): > 100 µM (inactive)
- GI50 (A549): > 100 µM (inactive)
- GI50 (ACHN): > 100 µM (inactive)
- GI50 (BT-549): > 100 µM (inactive)
- GI50 (CAKI-1): > 100 µM (inactive)
- GI50 (COLO 205): > 100 µM (inactive)
- GI50 (DU-145): > 100 µM (inactive)
- GI50 (EKVX): > 100 µM (inactive)
- GI50 (HCC 2998): > 100 µM (inactive)
- GI50 (HCT-116): > 100 µM (inactive)
- GI50 (HCT-15): > 100 µM
- GI50 (HOP-62): > 100 µM (inactive)
- GI50 (HOP-92): > 100 µM (inactive)
- GI50 (K562): > 100 µM (inactive)
- GI50 (KM12): > 100 µM (inactive)
- GI50 (M14): > 100 µM (inactive)
- GI50 (MCF7): > 100 µM (inactive)
- GI50 (MDA-MB-231): > 100 µM (inactive)
- GI50 (MDA-MB-435): > 100 µM (inactive)
- GI50 (MDA-N): > 100 µM (inactive)
- GI50 (MOLT-4): > 100 µM (inactive)
- GI50 (Malme-3M): > 100 µM (inactive)
- GI50 (NCI-H226): > 100 µM (inactive)
- GI50 (NCI-H23): > 100 µM (inactive)
- GI50 (NCI-H460): > 100 µM (inactive)
- GI50 (NCI-H522): > 100 µM (inactive)
- GI50 (NCI/ADR-RES): > 100 µM (inactive)
- GI50 (OVCAR-3): > 100 µM (inactive)
- GI50 (OVCAR-4): > 100 µM (inactive)
- GI50 (OVCAR-5): > 100 µM (inactive)
- GI50 (PC-3): > 100 µM (inactive)
- GI50 (RPMI-8226): > 100 µM (inactive)
- GI50 (SF-268): > 100 µM (inactive)
- GI50 (SF-295): > 100 µM (inactive)
- GI50 (SF-539): 14.1 µM (inactive)
- GI50 (SK-MEL-28): > 100 µM (inactive)
- GI50 (SK-MEL-2): > 100 µM (inactive)
- GI50 (SK-MEL-5): > 100 µM (inactive)
- GI50 (SK-OV-3): > 100 µM (inactive)
- GI50 (SN12C): > 100 µM (inactive)
- GI50 (SNB-19): > 100 µM (inactive)
- GI50 (SNB-75): > 100 µM (inactive)
- GI50 (T47D): > 100 µM (inactive)
- GI50 (TK-10): > 100 µM (inactive)
- GI50 (U-251): > 100 µM (inactive)
- GI50 (UACC-257): > 100 µM (inactive)
- GI50 (UACC-62): > 100 µM (inactive)
- GI50 (UO-31): > 100 µM (inactive)
